Biological target: T1, Pf2001Δ60 (recombinant thermostable lipase Pf2001) (Pyrococcus furiosus, UniProt Q8TZJ1)
T1 construct: expressed in E. coli BL21 (DE3) pLysS; crude extract supernatant
Assay: fluorescence release of 4-methylumbelliferone (ex […] nm, em […] nm)
Format: biochemical
Conditions: crude extract of E. coli expressing the enzyme; pH 7.0, 50 mM sodium phosphate, 0.1% gum arabic, 70 °C; soluble enzyme (also measured immobilised)

T1 sequence (Q8TZJ1 entry or part of it, stated change not applied): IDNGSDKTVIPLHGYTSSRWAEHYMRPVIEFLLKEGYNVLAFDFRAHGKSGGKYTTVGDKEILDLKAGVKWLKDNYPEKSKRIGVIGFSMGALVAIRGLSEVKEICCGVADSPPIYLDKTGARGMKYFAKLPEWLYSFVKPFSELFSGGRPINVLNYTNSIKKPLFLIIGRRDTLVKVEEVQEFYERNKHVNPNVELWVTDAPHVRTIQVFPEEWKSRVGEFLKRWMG

For `CCCCCCC(=O)Oc1ccc2c(C)cc(=O)oc2c1` [4-Methylumbelliferyl-heptanoate], the “fluorescence release of 4-methylumbelliferone (ex 323 nm, em 448 nm)” value was “Enzyme activity was measured according to the method described by Prim et al”.

Source: publication PMC2967836, “Immobilization and Characterization of a Recombinant Thermostable Lipase (Pf2001) from Pyrococcus furiosus on Supports with Different Degrees of Hydrophobicity” (Enzyme Research, 2010)
